Measurements from US20210093637A1, “TOPICAL OINTMENT FORMULATIONS OF PDE-4 INHIBITOR AND THEIR USE IN TREATING SKIN CONDITIONS” (Dermavant Sciences GmbH, priority 2017, published 2021).
Several values for one entry are separate records, joined by “and”; a condition that tells them apart may be missing. Identical values can stand only once. Entries after “also recorded” stand apart in the source; their conditions may differ.

Assays:
[1] = Phase 2 study in pediatric patients (Example 6), plasma concentrations of RVT-501 and M11 at Week 1; format: in vivo, human; details: for Plasma concentration, Mean (SD) / Plasma concentration, Median / Plasma concentration, Min / Plasma concentration, max / N with concentrations above LLQ (plasma): Week 1 pre-dose, subjects aged 2 to 11 years, twice daily application of RVT-501 0.5%; for N with concentrations above LLQ (plasma): N 16, LLQ 0.25 ng/mL
Method: Pharmacokinetic Endpoint: PK analysis for RVT-501 and M11 metabolite at the Week 1 visit in subjects 2 to 11 years old.
Pharmacokinetic Analyses: RVT-501 and M11 were measured in plasma by a validated assay. Plasma concentrations were summarized as continuous variables.
Pharmacokinetic Concentration Results: A single blood sample was collected pre-dose in subjects aged 2 to 11 years old at Week 1 to assess the concentration of RVT-501 and the M11 metabolite in plasma.

[2] = test system: pediatric subjects aged 2 to 15 years with mild to moderate AD; details: 0.05% and 0.2% ointment for 2 weeks; cited from earlier work
[3] = test system: Japanese male subjects with AD; details: ointment 0.01% to 0.2%; cited from earlier work
[4] = test system: adults with mild to moderate AD; details: 0.2% ointment BID, 4 weeks; cited from earlier work
[5] = single dermal application; stripped skin; non-fasted male rats; cited from earlier work
[6] = test system: healthy Japanese male subjects; details: cited from earlier work
[7] = test system: pediatric subjects with mild to moderate atopic dermatitis; test: Phase 2 study in pediatric patients (Example 6), safety (adverse events); format: in vivo, human
From the text: Safety Endpoint: Frequency and severity of adverse events (AE; local and systemic).
Analysis Populations: All subjects enrolled in the study who had at least one application of investigational product were included in the Safety Set (SS). This was the population for the safety analyses.
Safety Analyses: The number and proportion of subjects with AEs were summarized by treatment, system organ classification, and preferred term for all adverse events, all adverse events considered by the investigator to be related to study drug, all serious adverse events (SAE), all Common Terminology Criteria for Adverse Events (CTCAE) Grade 3 or higher AEs, and all adverse events leading to study discontinuation. Summaries of AEs were presented separately for the Double-Blind and Open-Label Extension Phases.
Laboratory data were analyzed using descriptive summary statistics and changes from baseline. Categorical safety data were analyzed using frequency tables and, if applicable, shift tables. Vital signs were listed by subjects and summarized by treatment.

[8] = Stability of E6005 and M11 in human dried blood spots; format: physicochemical
Method: Stability: Following stability of E6005 and M11 in DBS was assessed at low and high concentrations using LQC and HQC samples (three replicates/concentration): bench-top stability for 7 days at room temperature, long-term frozen stability for 160 days […] below −15° C., and processed sample stability for 85 h at 4° C. To investigate impacts of high humidity on the stability, bench-top stability test was performed at room temperature with relative humidity of ca. 80%-84%. Samples were considered stable when % bias from the nominal concentrations was within ±15%.

[9] = Week 1, RVT-501 0.5% twice daily, person two

Question: With CNc1nc(-c2cccc(NC(=O)c3ccc(C(=O)OC)cc3)c2)c2cc(OC)c(OC)cc2n1 [RVT-501, methyl N-[3-(6,7-dimethoxy-2-methylaminoquinazolin-4-yl)phenyl]terephthalamic acid] as the compound, how does the “plasma RVT-501 concentration, Subject 03001” value ([1]; Week 1, RVT-501 0.5% twice daily, person one) read?
Answer: The value was 1.07 ng/mL.

Question: What about the “plasma RVT-501 concentration, Subject 05002” value [1, 9] of the same compound?
Answer: Its value is 306 ng/mL and 306.00 ng/mL.

Question: What about the “plasma RVT-501 concentration, Subject 21001” value [1, 9] of the same compound?
Answer: Its value is “above the upper limit of quantification; also recorded: above upper limit of quantitation”.

Question: And the “Plasma concentration, Mean (SD)” value [1]?
Answer: Its value is 31.69 (88.531) ng/mL.

Question: What about the “Plasma concentration, Median” value [1] of the same compound?
Answer: The value was 0 ng/mL.

Question: And the “Plasma concentration, Min” value [1]?
Answer: Its value is 0 ng/mL.

Question: And the “Plasma concentration, max” value [1]?
Answer: The value was 306.00 ng/mL.

Question: What about the “N with concentrations above LLQ (plasma)” value [1] of the same compound?
Answer: Its value is 3.

Question: And the “adverse events attributable to the investigational product” value [2]?
Answer: The value was “no adverse events considered attributable to the investigational product”.

Question: And the “skin irritation, adverse events, laboratory values, vital signs, ECG, ophthalmological findings” value [3]?
Answer: Its value is “no clinically-significant findings”.

Question: And the tolerability [4]?
Answer: Its tolerability is “tolerability was good”.

Question: What about the “radiolabelled RVT-501 in the skin application site 24 hours after administration, relative to levels after 30 minutes” value [5] of the same compound?
Answer: Its value is 75%.

Question: What about the “skin or systemic AEs” value ([6]; 0.01%-0.2% ointment QD or BID up to 11 days, patch/photopatch) of the same compound?
Answer: Its value is “No significant skin or systemic AEs”.

Question: What about the “skin irritation, adverse events, laboratory values, vital signs, ECG, ophthalmological findings” value ([6]; ointment 0.01% to 0.2%) of the same compound?
Answer: Its value is “no clinically-significant findings”.

Question: And the “subjects with study-drug-related mild application site pruritus” value ([7]; Double-Blind Phase)?
Answer: Its value is 6.1%.

Question: And the safety and tolerability ([7]; human, in vivo)?
Answer: The safety and tolerability was “generally safe and well tolerated”.

Question: And the “subjects who experienced SAE (all deemed not related)” value ([7]; human, in vivo)?
Answer: Its value is “two”.

Question: What does the source list for CNc1nc(-c2cccc(NC(=O)c3ccc(C(=O)O)cc3)c2)c2cc(OC)c(OC)cc2n1 [Formulation M11, 4-((3-(6,7-dimethoxy-2-(methylamino)quinazolin-4-yl)phenyl)carbamoyl)benzoic acid]?
Answer: % bias ([8]; Bench-top, after 7 days at RT, HQC (160 ng/mL)): 2.5%; % bias ([8]; Bench-top, after 7 days at RT, LQC (3 ng/mL)): 6.0%; % bias ([8]; In processed samples, after 85 h at 4° C., HQC (160 ng/mL)): 0.2%; % bias ([8]; In processed samples, after 85 h at 4° C., LQC (1 ng/mL)): 5.9%; % bias ([8]; Long-term, after 160 days at RT, HQC (160 ng/mL)): 9.4%; % bias ([8]; Long-term, after 160 days at RT, LQC (3 ng/mL)): 0.3%; % bias ([8]; Long-term, after 160 days below −15° C., HQC (160 ng/mL)): −1.3%; % bias ([8]; Long-term, after 160 days below −15° C., LQC (3 ng/mL)): −1.3%; % bias ([8]; Under high humidity, after 7 days at humidity 80-84%, HQC (160 ng/mL)): −12.5%; % bias ([8]; Under high humidity, after 7 days at humidity 80-84%, LQC (3 ng/mL)): −2.3%; highest plasma M11 concentration (Subject 05002) ([1]; Week 1, RVT-501 0.5% twice daily): 16.90 ng/mL; measurable plasma concentrations of the M11 metabolite (eight subjects out of 16) ([1]; Week 1, ages 2-11 years): near the lower limit of quantitation; Plasma concentration, Mean (SD) [1]: 1.50 (4.194) ng/mL; Plasma concentration, Median [1]: 0.19 ng/mL; Plasma concentration, Min [1]: 0 ng/mL; Plasma concentration, max [1]: 16.90 ng/mL; N with concentrations above LLQ (plasma) [1]: 8
